We go through 20 compounds from patent US7199131B2, “Sulfonamide and sulfamide substituted imidazoquinolines” (3M Innovative Properties Company, priority 2001, dated 2007).

One data set relates to interferon (α). Put plainly: Cytokine Induction in Human Cells: interferon (α) secreted by PBMCs, ELISA. Type of data set: cell-based. The note with it: incubated 18 to 24 hours, lowest concentration found to induce interferon. An excerpt: (§1) An in vitro human blood cell system was used to assess cytokine induction by compounds of the invention. Activity is based on the measurement of interferon and tumor necrosis factor (α) (IFN and TNF, respectively) secreted into culture media as described by Testerman et. al. In “Cytokine Induction by the Immunomodulators Imiquimod and S-27609”, Journal of Leukocyte Biology, 58, 365–372 (September, 1995).
(§2) Whole blood is collected by venipuncture into EDTA vacutainer tubes from healthy human donors. Peripheral blood mononuclear cells (PBMCs) are separated from whole blood by density gradient centrifugation using Histopaque®-1077 (Sigma Chemicals, St. Louis, Mo.). The PBMCs are suspended at 3–4×10^6 cells/mL in RPMI 1640 medium containing 10% fetal bovine serum, 2 mM L-glutamine and 1% penicillin/streptomycin solution (RPMI complete). The PBMC suspension is added to 48 well flat bottom sterile tissue culture plates (Costar, Cambridge, Mass. or Becton Dickinson Labware, Lincoln Park, N.J.) containing an equal volume of RPMI complete media containing test compound.
(§3) The compounds are solubilized in dimethyl sulfoxide (DMSO). The DMSO concentration should not exceed a final concentration of 1% for addition to the culture wells.
(§4) The solution of test compound is added at 60 μM to the first well containing RPMI complete and serial (three fold or ten fold) dilutions are made. The PBMC suspension is then added to the wells in an equal volume, bringing the test compound concentrations to the desired range. The final concentration of PBMC suspension is 1.5–2×10^6 cells/mL. The plates are covered with sterile plastic lids, mixed gently and then incubated for 18 to 24 hours at 37° C. in a 5% carbon dioxide atmosphere.
(§5) Following incubation the plates are centrifuged for 5–10 minutes at 1000 rpm (˜200×g) at 4° C. The cell culture supernatant is removed with a sterile polypropylene pipette and transferred to sterile polypropylene tubes. Samples are maintained at −30 to −70° C. until analysis. The samples are analyzed for interferon (α) and tumor necrosis factor (α) by ELISA
Interferon (α) concentration is determined by ELISA using a Human Multi-Species kit from PBL Biomedical Laboratories, New Brunswick, N.J.
(§6) The table below lists the lowest concentration found to induce interferon and the lowest concentration found to induce tumor necrosis factor for each compound.
A general note: An ELISA detects its analyte on a solid surface through an enzyme-linked reagent.

Data set [1] has as its system tumor necrosis factor (α). Nature of the data set: Cytokine Induction in Human Cells: tumor necrosis factor (α) secreted by PBMCs, ELISA. Type of data set: cell-based. The settings on record: incubated 18 to 24 hours, lowest concentration found to induce tumor necrosis factor.
From the text: as §1, §2, §3, §4, §5
Tumor necrosis factor (α) (TNF) concentration is determined using ELISA kits available from Genzyme, Cambridge, Mass.; R&D Systems, Minneapolis, Minn.; or Pharmingen, San Diego, Calif.
as §6

The term minimal effective concentration denotes the lowest level tested that produced the effect sought. Read a low minimal effective concentration as an effect from little substance. A word on the melting point: it is the temperature, or range, at which the solid turns liquid.

Counter-ions that a name gives are not always drawn.

Consider `COCCc1nc2c(N)nc3c(c2n1CCCCNS(C)(=O)=O)CCCC3` [Example 214, N-[4-(4-Amino-6,7,8,9-tetrahydro-2-(2-methoxyethyl)-1H-imidazo[4,5-c]quinolin-1-yl)butyl]methanesulfonamide Trifluoroacetate], for which the minimal effective concentration is 0.01 µM in the data set on interferon (α) and 10 µM in data set [1].

`CCc1nc2c(N)nc3ccccc3c2n1CCCCNS(=O)(=O)c1ccccc1` [Example 232, N-[4-(4-amino-2-ethyl-1H-imidazo[4,5-c]quinolin-1-yl)butyl]benzenesulfonamide] returned a melting point of 180.6 to 182 °C. In the data set on interferon (α) (PBMC), this compound displayed a minimal effective concentration of 0.12 µM. In addition, in data set [1] (PBMC), the minimal effective concentration is 1.11 µM.

`CCCc1nc2c(N)nc3ccccc3c2n1CCCCNS(=O)(=O)c1ccccc1` [Example 233, N-[4-(4-amino-2-propyl-1H-imidazo[4,5-c]quinolin-1-yl)butyl]benzenesulfonamide] returned a melting point of 158.8 to 160.8 °C. This compound came in with a minimal effective concentration with interferon (α) (PBMC) of 0.37 µM. This compound came in with a minimal effective concentration in data set [1] (PBMC) of 1.11 µM.

As for `CCCCCCc1nc2c(N)nc3ccccc3c2n1CCCCNS(=O)(=O)c1ccccc1` [Example 234, N-[4-(4-amino-2-hexyl-1H-imidazo[4,5-c]quinolin-1-yl)butyl]benzenesulfonamide], the melting point fell in the range of 84.8 to 85.4 °C. This compound also registered a minimal effective concentration with interferon (α) (PBMC) of 1.11 µM. For the same compound, the minimal effective concentration in data set [1] (PBMC) amounted to 1.11 µM.

On to `CCCc1nc2c(N)nc3ccccc3c2n1CCCCNS(C)(=O)=O` [Example 235, N-[4-(4-amino-2-propyl-1H-imidazo[4,5-c]quinolin-1-yl)butyl]methanesulfonamide], for which the melting point was in the range of 186.5 to 187.9 °C. For the same compound, the minimal effective concentration in the data set with interferon (α) (PBMC) is 0.04 µM. Also, in data set [1] (PBMC), the minimal effective concentration worked out at 1.11 µM.

Regarding `CCc1nc2c(N)nc3ccccc3c2n1CCCCNS(C)(=O)=O` [Example 236, N-[4-(4-amino-2-ethyl-1H-imidazo[4,5-c]quinolin-1-yl)butyl]methanesulfonamide], the minimal effective concentration in the data set on interferon (α) (PBMC) stood at 0.01 µM; in data set [1] (PBMC) it was 0.12 µM.

For `Cc1nc2c(N)nc3ccccc3c2n1CCCCNS(=O)(=O)c1ccccc1` [Example 237, N-[4-(4-amino-2-methyl-1H-imidazo[4,5-c]quinolin-1-yl)butyl]benzenesulfonamide], the melting point lay in the range of 215.4 to 216 °C. The minimal effective concentration in the data set with interferon (α) (PBMC) turned out to be 0.37 µM. The minimal effective concentration in data set [1] (PBMC) was 0.04 µM.

`Cc1nc2c(N)nc3ccccc3c2n1CCCCNS(C)(=O)=O` [Example 238, N-[4-(4-amino-2-methyl-1H-imidazo[4,5-c]quinolin-1-yl)butyl]methanesulfonanide]: the melting point fell in the range of 229.4 to 230.5 °C. This compound came in with a minimal effective concentration with interferon (α) (PBMC) of 0.04 µM. Besides, in data set [1] (PBMC), the minimal effective concentration was found to be 0.37 µM.

`CCCCc1nc2c(N)nc3ccccc3c2n1CCCNS(C)(=O)=O` [Example 239, N-[3-(4-amino-2-butyl-1H-imidazo[4,5-c]quinolin-1-yl)propyl]methanesulfonamide] had a melting point of 239.2 to 240.8 °C. The same compound gave a minimal effective concentration in the data set with interferon (α) (PBMC) of 0.01 µM. The minimal effective concentration in data set [1] (PBMC) is 1.11 µM.

The compound `CCCCc1nc2c(N)nc3ccccc3c2n1CCCNS(=O)(=O)c1ccccc1` [Example 240, N-[3-(4-amino-2-butyl-1H-imidazo[4,5-c]quinolin-1-yl)propyl]benzenesulfonamide] displayed a melting point of 210.5 to 212 °C. This compound also yielded a minimal effective concentration in the data set on interferon (α) (PBMC) of 0.37 µM. In data set [1] (PBMC), this compound had a minimal effective concentration of 3.33 µM.

Regarding `CCCCCCc1nc2c(N)nc3ccccc3c2n1CCCCNS(C)(=O)=O` [Example 241, N-[4-(4-amino-2-hexyl-1H-imidazo[4,5-c]quinolin-1-yl)butyl]methanesulfonamide], the melting point lay within 170.2 to 171.1 °C. In the data set on interferon (α) (PBMC), this compound yielded a minimal effective concentration of 0.12 µM. This compound also displayed a minimal effective concentration in data set [1] (PBMC) of 1.11 µM.

Take `COCCc1nc2c(N)nc3ccccc3c2n1CCCCCCCCNS(=O)(=O)c1ccccc1` [Example 242, N-{8-[4-amino-2-(2-methoxyethyl)-1H-imidazo[4,5-c]quinolin-1-yl]octyl}benzenesulfonamide]: the melting point was in the range of 146 to 149 °C. In addition, the minimal effective concentration in the data set on interferon (α) (PBMC) was determined as 0.01 µM. The same compound had a minimal effective concentration in data set [1] (PBMC) of 0.01 µM.

The compound `COCCc1nc2c(N)nc3ccccc3c2n1CCCCCCCCNS(C)(=O)=O` [Example 243, N-{8-[4-amino-2-(2-methoxyethyl)-1H-imidazo[4,5-c]quinolin-1-yl]octyl}methanesulfonamide] yielded a melting point of 109 to 110 °C. This compound showed a minimal effective concentration in the data set with interferon (α) (PBMC) of 0.01 µM. The same compound came in with a minimal effective concentration in data set [1] (PBMC) of 0.01 µM.

As for `CCCCc1nc2c(N)nc3ccccc3c2n1CCCCCCCCNS(C)(=O)=O` [Example 244, N-[8-(4-amino-2-butyl-1H-imidazo[4,5-c]quinolin-1-yl)octyl]methanesulfonamide], the melting point was 121 to 124 °C. This compound came in with a minimal effective concentration in the data set on interferon (α) (PBMC) of 0.01 µM. For the same compound, the minimal effective concentration in data set [1] (PBMC) stood at 0.01 µM.

Take `CCCCc1nc2c(N)nc3ccccc3c2n1CCCNS(=O)(=O)c1cccc2c(N(C)C)cccc12` [Example 245, N-[3-(4-amino-2-butyl-1H-imidazo[4,5-c]quinolin-1-yl)propyl]-5-(dimethylamino)naphthalene-1-sulfonamide]: the melting point fell in the range of 216.5 to 217.5 °C. In the data set with interferon (α) (PBMC), this compound had a minimal effective concentration of 3.33 µM. The compound also gave a minimal effective concentration in data set [1] (PBMC) of more than 30 µM.

`CCCCc1nc2c(N)nc3ccccc3c2n1CCCNS(=O)(=O)c1ccc(C)cc1` [Example 246, N-[3-(4-amino-2-butyl-1H-imidazo[4,5-c]quinolin-1-yl)propyl]-4-methylbenzenesulfonamide]: the melting point fell in the range of 197 to 198.5 °C. The same compound registered a minimal effective concentration with interferon (α) (PBMC) of 1.11 µM. This compound gave a minimal effective concentration in data set [1] (PBMC) of 3.33 µM.

As for `COCCc1nc2c(N)nc3ccccc3c2n1CCCNS(C)(=O)=O` [Example 247, N-{3-[4-amino-2-(2-methoxyethyl)-1H-imidazo[4,5-c]quinolin-1-yl]propyl}methanesulfonamide], the melting point lay in the range of 193 to 194 °C. The compound further yielded a minimal effective concentration in the data set with interferon (α) (PBMC) of 0.01 µM. In addition, the minimal effective concentration in data set [1] (PBMC) came to 0.01 µM.

As for `CCCCCc1nc2c(N)nc3ccccc3c2n1CCCCNS(C)(=O)=O` [Example 250, N-[4-(4-amino-2-pentyl-1H-imidazo[4,5-c]quinolin-1-yl)butyl]methanesulfonamide], the minimal effective concentration came out at 0.01 µM in the data set with interferon (α) (PBMC) and 0.12 µM in data set [1] (PBMC).

Regarding `CCCCCc1nc2c(N)nc3ccccc3c2n1CCCCNS(=O)(=O)c1ccccc1` [Example 251, N-[4-(4-amino-2-pentyl-1H-imidazo[4,5-c]quinolin-1-yl)butyl]benzenesulfonamide], the minimal effective concentration stood at 0.12 µM in the data set with interferon (α) (PBMC) and 10 µM in data set [1] (PBMC).

Take `Cc1nc2c(N)nc3c(c2n1CCCCNS(C)(=O)=O)CCCC3` [Example 263, N-[4-(4-amino-2-methyl-6,7,8,9-tetrahydro-1H-imidazo[4,5-c]quinolin-1-yl)butyl]methanesulfonamide hydrochloride]: the results for the minimal effective concentration (in the data set on interferon (α) (PBMC); in data set [1] (PBMC)) were 0.12 µM and more than 30 µM, respectively.
